Results taken from patent US8268854B2, “Aza-beta-carbolines and methods of using same” (The UWM Research Foundation, Inc., priority 2008, dated 2012).
Counter-ions that a name gives are not always drawn.

Tests used:
[1] = tested on: Male P rats; test: Animal model of excessive (binge) alcohol consumption, operant alcohol responding; assay type: in vivo, rat; details: N=5 per compound, oral gavage, lever press for alcohol, FIG. 13, FIG. 14
Procedure: Male P rats are used as subjects. All animals are individually housed in shoebox cages in a temperature- and humidity-controlled room on a 12 h:12 h light/dark cycle (lights on at 8:00 AM, off at 8:00 PM) with food and water available ad libitum. All behavioral training and testing take place between 8:00 AM and 10:00 AM. All procedures are conducted in accordance with the NIH Guide for the Care and Use of Laboratory Animals.
10% (v/v) EtOH and 3% (w/v) sucrose solutions are prepared using previously published procedures (Harvey et al. J. Neurosci. 2002, 22, 3765-3775; June et al. Neuropsychopharmacology 2003, 28, 2124-2137) with deionized water. The solutions are prepared daily. Compounds are administered by oral gavage (20-60 mg/kg) in all studies (e.g., alcohol responding, sucrose responding) as indicated in FIG. 12. The compounds are mixed in deionized water and administered by gavage in an injection volume of 1 mL/kg 25 min prior to the behavioral task. […]
Approximately 100 μL of whole blood is collected from a rat's tail tip into a heparin-coated microsample tube. […] The results are calculated in units of mg/dL and printed within 20 s of each trial as previously reported (Harvey et al., J. Neurosci. 2002, 22, 3765-3775; June et al. Neuropsychopharmacology 2003, 28, 2124-2137). […]

[2] = target: T1, SERT transporter (Homo sapiens, UniProt P31645); test: PDSP primary radioligand binding assay; details: compound 10 μM, n=4, read-out: mean percentage inhibition, SERT transporter
T1 construct: expressed in transfected cells
T1 sequence (P31645 whole entry): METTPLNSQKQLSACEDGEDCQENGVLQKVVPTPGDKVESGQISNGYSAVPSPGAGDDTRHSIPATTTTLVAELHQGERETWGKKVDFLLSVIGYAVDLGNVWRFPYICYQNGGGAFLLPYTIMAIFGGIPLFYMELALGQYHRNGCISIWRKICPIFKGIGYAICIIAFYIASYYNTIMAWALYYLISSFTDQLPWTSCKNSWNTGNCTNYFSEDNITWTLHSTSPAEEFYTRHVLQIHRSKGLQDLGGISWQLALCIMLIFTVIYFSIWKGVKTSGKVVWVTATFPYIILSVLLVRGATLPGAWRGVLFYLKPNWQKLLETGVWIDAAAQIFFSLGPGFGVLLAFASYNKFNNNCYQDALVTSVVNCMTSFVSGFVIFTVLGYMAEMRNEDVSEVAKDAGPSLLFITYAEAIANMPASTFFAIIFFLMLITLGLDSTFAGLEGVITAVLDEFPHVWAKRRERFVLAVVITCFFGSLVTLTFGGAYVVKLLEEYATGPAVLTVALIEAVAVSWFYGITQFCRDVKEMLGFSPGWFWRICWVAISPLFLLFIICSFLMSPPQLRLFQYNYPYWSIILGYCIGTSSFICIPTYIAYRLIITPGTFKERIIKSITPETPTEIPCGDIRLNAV
Procedure: Primary and secondary radioligand binding assays are performed. In general, the primary assay is run at very high ligand (compound) concentration as a broad screen to determine whether a compound binds to a particular receptor. If greater than 50% inhibition at 10 μM (high concentration of compound) at a particular receptor is determined, a secondary assay is performed on that receptor. Data from the secondary assay is the binding affinity (Ki value).
A solution of the compound to be tested is prepared as a 1 mg/ml stock in Standard Binding Buffer or dimethyl sulfoxide (DMSO) according to its solubility. A similar stock of a reference compound (positive control) is also prepared.
Radioligand (radioligands are presented in Table 39) is diluted to five times the assay concentration (assay concentrations are presented in Table 39) in Standard Binding Buffer. Typically, the assay concentration of radioligand is a value between one half the KD and the KD of a particular radioligand at its target. Aliquots (50 μL) of radioligand are dispensed into the wells of a 96-well plate (see FIG. 11) containing 100 μL of Standard Binding Buffer (Table 40). Then, duplicate 50 μL aliquots of the test and reference compound dilutions are added (see FIG. 11). According to FIG. 11, increasing concentrations (from left to right) of reference or test compound (diluted in buffer) are added (50 μL aliquots, in duplicate) from 5× stock solutions to wells containing 50 μL of 5× radioligand (fixed concentration, prepared in buffer) and 100 μL of buffer. Finally, 50 μL of receptor-containing membrane homogenate (5× suspension in buffer) are added to achieve a final assay volume of 250 μL. Final concentrations of reference or test compound are listed above the columns in FIG. 11.
Finally, crude membrane fractions of cells expressing recombinant target (prepared from 10 cm plates by harvesting phosphate buffered saline (PBS)-rinsed monolayers, resuspending and lysing in chilled, hypotonic 50 mM Tris-HCl, pH 7.4, centrifuging at 20,000×g, decanting the supernatant and storing at −80° C.; typically, one 10 cm plate provides sufficient material for 24 wells) are resuspended in 3 mL of chilled Standard Binding Buffer and homogenized by several passages through a 26 gauge needle, and then 50 μL are dispensed into each well.
The 250 μL reactions are incubated at room temperature and shielded from light (to prevent photolysis of light-sensitive ligands) for 1.5 hours, then harvested by rapid filtration onto Whatman GF/B glass fiber filters pre-soaked with 0.3% polyethyleneimine using a 96-well Brandel harvester. Four rapid 500 μL washes are performed with chilled Standard Binding Buffer to reduce non-specific binding. Filters are placed in 6 mL scintillation tubes and allowed to dry overnight. The next day, 4 mL of EcoScint scintillation cocktail (National Diagnostics) are added to each tube. The tubes are capped, labeled, and counted by liquid scintillation counting. For higher throughput assays, bound radioactivity is harvested onto 0.3% polyethyleneimine-treated, 96-well filter mats using a 96-well Filtermate harvester. The filter mats are dried, then scintillant is melted onto the filters, and the radioactivity retained on the filters is counted in a Microbeta scintillation counter.
Raw data (dpm) representing total radioligand binding (i.e., specific+non-specific binding) are plotted as a function of the logarithm of the molar concentration of the competitor (i.e., test or reference compound). […]

inhibition at 10 µM [2] [%] | SMILES | effect on excessive alcohol consumption [1]
22.1 | CCCOc1cc2c(cn1)[nH]c1ccncc12 [Compound 2, 8-Propoxypyridino[4′,3′-5,4]pyrrolo[3,2-c]pyridine hydrochloride] | Reduce Excessive Alcohol Consumption
– | CCCOc1cc2c(cn1)[nH]c1cnccc12 [Compound 4, 3-Propoxy pyridino[4′,3′-4,5]pyrrolo[2,3-c]pyridine hydrochloride] | Reduce Excessive Alcohol Consumption
